Test results published in patent US20220135564A1, “DEUTERATED MITRAGYNINE ANALOGS AS SAFER OPIOID MODULATORS IN THE MITRAGYNINE CLASS” (The Trustees of Columbia University in the City of New York, priority 2019, published 2022).
Counter-ions that a name gives are not always drawn.

Tests used:
HLM metabolite formation = details: 2 μM, 37° C., over 40 minutes
Procedure: HLM Metabolite Formation. Pooled HLM from 50 adult male and female donors (XenoTech H0630, lot 1610016) were used. Microsomal incubations of mitragynine and 3-DM were carried out in 96-well plates in 5 aliquots of 40 μL each (one for each time point). Liver microsomal incubation medium contained PBS (100 mM, pH 7.4), MgCl2 (3.3 mM), NADPH (3 mM), glucose-6-phosphate (5.3 mM), glucose-6-phosphate dehydrogenase (0.67 units/mL) with 0.42 mg of liver microsomal protein per ml. Control incubations were performed replacing the NADPH-cofactor system with PBS. Test compounds (2 μM, final solvent concentration 1.6%) were incubated with microsomes at 37° C., shaking at 100 rpm. Incubations were performed in duplicate. Five time points over 40 minutes were analyzed. The reactions were stopped by adding 8 volumes of 90% acetonitrile-water to incubation aliquots, followed by protein sedimentation by centrifugation at 5500 rpm for 3 minutes. Supernatants were analyzed for parent compound remaining and metabolites DHM (both mitragynine and 3-DM incubations), 7-OH (mitragynine incubations), and 3-d-7-OH (3-DM incubations), using a fit-for-purpose liquid chromatography-tandem mass spectrometry (LC-MS/MS) method, with authentic samples of each analyte used for calibration and identification.

[1] = Pharmacokinetics in C57BL/6 mice, plasma and brain metabolite concentrations; details: male C57BL/6 mice, 10 mg/kg s.c., 0.083-24 h
Procedure: Animals. Healthy male C57BL/6 mice (8-12 weeks old) weighing between 19 to 28 g were procured from Global, India. Four mice were housed in each cage. Temperature and humidity were maintained at 22±3° C. and 30-70%, respectively and illumination was controlled on a 12-h light/dark cycle. Temperature and humidity were recorded by an auto-controlled data logger system. All animals were provided a laboratory rodent diet (Envigo Research Private Ltd, Hyderabad, India) and reverse osmosis water treated with ultraviolet light was provided ad libitum.
Drugs. Mitragynine and 3-DM were dissolved in normal saline made slightly acidic (˜pH 3) with 1M aqueous HCl. Drugs were administered subcutaneously at a volume of 10 mL/kg body weight and a dose of 10 mg/kg.
Pharmacokinetics. Blood samples (approximately 60 μL) were collected under light isoflurane anesthesia from the retro orbital plexus at 0.083, 0.25, 0.5, 1, 2, 4, 8 and 24 h (4 animals per time point). Plasma samples were separated by centrifugation of whole blood and stored below −70° C. until bioanalysis. Immediately after collection of blood, mice were euthanized and brain samples were collected at 0.083, 0.25, 0.5, 1, 2, 4, 8 and 24 h (4 animals per time point). Brain samples were homogenized using ice-cold phosphate buffered saline (pH 7.4) and homogenates were stored below −70° C. until analysis. Total homogenate volume was three times the tissue weight. Aliquots (25 μL) of each study sample (dilution factor applied for several samples) or spiked calibration standard were added to individual micro-centrifuge tubes followed by 100 μL of internal standard solution prepared in acetonitrile (Glipizide, 500 ng/mL; except for blank, where 100 μL of acetonitrile was added). Samples were vortexed for 5 minutes and then centrifuged for 5 minutes at a speed of 4000 rpm at 4° C. Following centrifugation, supernatants were analyzed for metabolites DHM (both mitragynine and 3-DM treatment) and 7-OH (mitragynine treatment) or 3-d-7-OH (3-DM treatment), using a fit-for-purpose liquid chromatography-tandem mass spectrometry (LC-MS/MS) method, with authentic samples of each analyte used for calibration and identification.

Male Sprague-Dawley rats = assay: Rat tail-flick assay (analgesic activity); format: in vivo; details: oral gavage, 50° C. hot-water bath, 30 minutes after administration
Procedure: Animals. Male Sprague-Dawley rats, aged 7-8 weeks, were used in experiments. Animals were housed under controlled temperatures and 12-hour light/dark cycles (lights on at 06:00-18:00 h), with ad libitum food and water. The study was approved by the Institutional Animal Care and Use Committee (IACUC) at WuXi AppTec (Shanghai). WuXi's animal facilities and IACUC are fully accredited by the Association for Assessment and Accreditation of Laboratory Animal Care International (AAALAC). All efforts were made to minimize animal suffering.
Drugs and Drug Administration. Drugs were prepared as described above and administered by oral gavage at a volume of 5 mL/kg in de-ionized water acidified with acetic acid.
Tail-Flick. Analgesic activity was assessed in the tail-flick assay 30 minutes (peak effect) after administration of vehicle and each dose of drug (n=8 per treatment). Animals were tested for their latency to withdraw their tails from a hot water bath maintained at 50° C. with a room temperature of 22° C. A cutoff time of 7 seconds was used to prevent tissue damage. Data were analyzed as percent maximal effect, % MPE, which was calculated according to the formula: % MPE=[(observed latency−vehicle latency)/(maximal latency−vehicle latency)]×100. Dose-response curves were fit by nonlinear regression (GraphPad Prism, La Jolla, Calif.).

[2] = Mouse brain homogenate (MBH) stability and metabolite formation; format: in vitro ADME; details: 2 μM, 37° C., over 120 minutes
Procedure: MBH Preparation. Male BALB/c mice (12-14 weeks old) were housed in polypropylene cages with free access to standard commercial food pellets and tap water. Animals were sacrificed by cervical dislocation immediately prior to brain homogenate preparation. Brains from 10 mice were fragmented into small pieces and homogenized in ice-cold artificial cerebrospinal fluid solution (ACSF: 126 mM NaCl, 2.68 mM KCl, 1 mM Na2HPO4, 0.88 mM MgSO4, 22 mM NaHCO3, 1.45 mM CaCl2, 10 mM HEPES, 11 mM D-glucose, pH 7.4) using a TH-01 OMNI homogenizer. Samples were centrifuged at 1500×g for 10 minutes. Supernatants were decanted and collected. Total protein concentration was determined by Bradford assay and equaled 17.7 mg/mL. The obtained brain homogenate was flash-frozen in liquid nitrogen. Aliquots were stored at −70° C. until use.
MBH Stability and Metabolite Formation. […] The incubation medium consisted of artificial cerebrospinal fluid solution (ACSF: 126 mM NaCl, 2.68 mM KCl, 1 mM Na2HPO4, 0.88 mM MgSO4, 22 mM NaHCO3, 1.45 mM CaCl2, 10 mM HEPES, 11 mM D-glucose, pH 7.4) with 2 mg of brain protein per mL. Test compounds (2 μM, final solvent concentration 1%) were incubated with brain homogenate at 37° C., shaking at 100 rpm. Incubations were performed in duplicate. Six time points over 120 minutes were analyzed.

[3] = Pharmacokinetics in 129S1 mice, brain metabolite concentrations at 15 minutes; details: male 129S1 mice, 10 mg/kg s.c.
[4] = MS9 metabolite formation (M1, M4, M6) from mitragynine and 3-DM; format: in vitro ADME, mouse; details: 2 μM, 37° C., over 60 minutes, MS peak area, compared to mitragynine
Procedure: MS9 Metabolite Formation. Liver S9 fraction pooled from male CD-1 mice was used. […] Control incubations were performed replacing the cofactor system with phosphate buffer. […] Incubations were performed in duplicate. Five time points over 60 minutes were analyzed. […] Supernatants were analyzed for remaining parent compound and metabolites by liquid chromatography-tandem mass spectrometry (LC-MS/MS).

mice = assay: Analgesic activity of DHM in mice; format: in vivo, mouse
male mice (C57BL/6J) = assay: Rotarod test in mice (motor coordination); format: in vivo, mouse; details: male C57BL/6J mice, s.c., cumulative 3, 10, 30 mg/kg, compared to vehicle
Procedure: The rotarod test is useful for measuring the motor coordination of rodents and therefore, for identifying test drugs that induce ataxic effects. 3-Dehydromitragynine (DHM) reduces the performance of mice in this test in a dose-dependent manner; indicating an impairment of motor coordination by this compound (FIG. 1).
Animals. This study was conducted using male C57BL/6J mice, 7 weeks of age (n=10/treatment), purchased from The Jackson Laboratory (Bar Harbor, Me.). Animals were housed in groups of five and allowed to acclimate for 1 week prior to testing. Mice had ad libitum access to food and water and were maintained on a 12-hour light/dark cycle. All testing was done in the light cycle.
Drug. DHM hydrochloride was dissolved in double-distilled H2O containing 10% N-methyl-2-pyrrolidone (NMP). Drug or vehicle was administered subcutaneously 15 minutes prior to the start of behavioral testing at a volume of 10 mL/kg body weight. Dosing was performed cumulatively at 3, 10, and 30 mg/kg, with 1 hour between injections.
Rotarod Testing. On the test day, animals were acclimated to the testing room for 1 hour. An accelerating rotarod (Model 7650, UGO Basile, Comeria, VA, Italy) was used to measure the motor coordination of the animals. Time on the rotarod was measured by stopwatch, starting when animals were placed on the rod and ending at the time the animal fell off the apparatus. […]

[5] = tested on: mice (129Sv6 or CD-1 strain); assay: Lethality assay in mice; format: in vivo, mouse; details: s.c., lethality 24 h after administration
Procedure: Lethality Assay. Groups of mice (n=6 per dose, 129Sv6 or CD-1 strain) were treated subcutaneously (s.c.) with different doses of DHM and tested for lethality 24 h after drug administration.

[6] = Metabolic profiling of DHM in mouse liver S9 fraction (MS9); format: in vitro ADME; details: DHM 10 μM, MS9, 60-min incubation, positive ion mode
Procedure: Analytical System. The metabolic profiling of DHM in mouse liver S9 fraction was performed using high performance liquid chromatography-tandem mass spectrometry (HPLC-MS/MS). A Shimadzu HPLC system comprising 2 isocratic pumps (LC-10ADvp), an autosampler (SIL-30ACMP), a system controller (CBM-20A), a high-pressure switching valve (FCV-20AH6), and a degasser (DGU-14A) was used for separations. Mass spectrometric analyses were performed using an API 4000 QTRAP mass spectrometer from Applied Biosystems/MDS Sciex (AB Sciex) with Turbo V ion source and TurboIonspray interface. Data acquisition and system control was performed using Analyst 1.6.3 software from AB Sciex.
Liver S9 Incubations. Liver S9 fraction pooled from male CD-1 mice was used. Incubations were carried out in 1.1 mL microtubes (in 96-well format plate) in aliquots of 40 μL each (2 for each time point; 0, 6, 16, 30, and 60 min). […] Control incubations were performed replacing the cofactor system with phosphate buffer. Test compound DHM (10 μM, final solvent concentration 1.6%) was incubated with S9 at 37° C., shaking at 100 rpm. Incubations were performed in duplicate. Five time points over 60 minutes (0, 6, 16, 30, and 60 min) were analyzed. […] Supernatants (two time points, 0 and 60 min) were analyzed for remaining parent compound and putative metabolites by HPLC-MS/MS.
General Strategy for Identification of Metabolites. […]

[7] = compared to 7-OH from mitragynine

Row | Compound | formation of 7-hydroxy active metabolite (3-d-7-OH) in HLMs (HLM metabolite formation; [7]) | concentration of toxic metabolite DHM formed in HLMs (HLM metabolite formation; compared to mitragynine) | brain concentration of active metabolite 3-d-7-OH [1, 7] | plasma concentration of active metabolite 3-d-7-OH [1, 7] | brain concentration of DHM ([1]; compared to mitragynine) | plasma concentration of DHM ([1]; compared to mitragynine) | analgesic effect in the tail-flick assay (Male Sprague-Dawley rats) | decomposition of parent compound in MBH [2] | formation of DHM in MBH ([2]; compared to mitragynine) | brain concentration of 7-hydroxy active metabolite (3-d-7-OH) [3, 7] | brain concentration of DHM ([3]; compared to mitragynine) | formation of metabolite M1 in MS9 [4] | formation of metabolite M4 in MS9 [4] | formation of metabolite M6 in MS9 [4] | analgesic activity on its own (mice) | motor coordination, latency to fall in the rotarod test (male mice (C57BL/6J)) | LD50 (95% confidence interval) ([5]; 129Sv6 mice) | LD50 (95% confidence interval) ([5]; CD-1 mice) | % Area [6] [%]
1 | [2H][C@@]12C[C@H](/C(=C\OC)C(=O)OC)[C@H](CC)CN1CCc1c2[nH]c2cccc(OC)c12 [3-DM, 3-Deuteromitragynine] | little effect | greatly attenuated | no effect | no effect | greatly attenuated | greatly attenuated | dose-dependent analgesic effects | attenuated the decomposition | attenuated formation of DHM | little effect | greatly attenuated | greatly attenuated | greatly attenuated | greatly attenuated |  |  |  |  | 
2 | CC[C@@H]1C[N+]2=C(C[C@@H]1/C(=C\OC)C(=O)OC)c1[nH]c3cccc(OC)c3c1CC2 [DHM, 3-Dehydromitragynine hydrochloride] |  |  |  |  |  |  |  |  |  |  |  |  |  |  | does not exhibit analgesic activity | dramatically impairs motor coordination | 48.4 (71.27-342.3) mg/kg | 74 (48.08-120.5) mg/kg | 20
